Patent US9273003B2, “Methods of treating lymphoma and rheumatoid arthritis with cyclopentyl (2S)-cyclohexyl[({6-[3-(hydroxyamino)-3-oxopropyl]pyridin-3-yl}methyl)amino]acetate” (GlaxoSmithKline Intellectual Property Development Limited, priority 2006, dated 2016)
pIC50: −log10 of the molar value. Read-outs that look alike come from different tables or passages of the source.

Tests used:
[1] = test system: U937 cells; assay: U937 cell inhibition assay (WST-1 cell viability); type: cell-based; settings: for pIC50: U937 cells, IC50 allocated to ranges, read-out: U937 activity
Procedure, shortened: (§1)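 Log-phase cells seeded at 1000-2000/well, grown 24 h, then exposed to compound for 72-96 h before WST-1 viability readout. Eight concentrations (top 10 μM final, 3-fold steps), 6 replicates; % inhibition versus DMSO, IC50 by sigmoidal variable-slope fit.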

[2] = test system: HUT78 cells; assay: HUT cell inhibition assay (WST-1 cell viability); type: cell-based; settings: Homo sapiens; for pIC50: HUT78 cells, IC50 allocated to ranges, read-out: HUT activity
Procedure, shortened: as §1

[3] = test system: HeLa cells; assay: HeLa cell inhibition assay (sulphorhodamine B cell viability); type: cell-based; settings: Homo sapiens, IC50 allocated to ranges
Protocol: HeLa cells growing in log phase were harvested and seeded at 1000 cells/well (200 μl final volume) into 96-well tissue culture plates. Following 24 h of cell growth cells were treated with compounds (final concentration of 20 μM). Plates were then re-incubated for a further 72 h before a sulphorhodamine B (SRB) cell viability assay was conducted according to the methodology described by Skehan et al, J. Natl. Canc. Inst., 1990, 82, 1107-1112.
Data were expressed as a percentage inhibition of the control, measured in the absence of inhibitor, as follows:— % inhibition=100−[(S^i/S^o)×100] where S^i is the signal in the presence of inhibitor and S^o is the signal in the presence of DMSO.
IC50 values were determined by non-linear regression analysis, after fitting the results of eight data points to the equation for sigmoidal dose response with variable slope (% activity against log concentration of Compound), using Graphpad Prism software.

[4] = molecular target: histone deacetylase activity (HeLa nuclear extract); assay: HDAC fluorescent activity assay (Fluor de Lys, Biomol); type: biochemical; settings: for pIC50: IC50 allocated to ranges, read-out: HDAC activity
Procedure, shortened: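 HeLa nuclear extract as HDAC source incubated with acetyl-lysine Fluor de Lys substrate ± inhibitor; developer then releases fluorophore from deacetylated substrate. Activity as % of vehicle control after no-enzyme background subtraction; IC50 from eight-point variable-slope sigmoidal fit.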

C=CCOC(=O)[C@@H](NCc1ccc(/C=C/C(=O)NO)cc1)C1CCCCC1 [Example 25, Allyl (2S)-cyclohexyl({4-[(1E)-3-(hydroxyamino)-3-oxoprop-1-en-1-yl]benzyl}amino)acetate]
pIC50 ([1]; Homo sapiens, U-937): > 6.48 | pIC50 [2]: 5.48 to 6.48 | pIC50 [3]: 5.48 to 6.48 | pIC50 [4]: > 7.00

CC1CCC(OC(=O)[C@@H](NCc2ccc(/C=C/C(=O)NO)cc2)C2CCCCC2)C1 (stereo partly drawn) [Example 28, 3-Methylcyclopentyl (2S)-cyclohexyl({4-[(1E)-3-(hydroxyamino)-3-oxoprop-1-en-1-yl]benzyl}amino)acetate]
pIC50 ([1]; Homo sapiens, U-937): > 6.48 | pIC50 [2]: 5.48 to 6.48 | pIC50 [3]: 5.48 to 6.48 | pIC50 [4]: 6.00 to 7.00

O=C(/C=C/c1cccc(C(=O)N[C@H](C(=O)OC2CCCC2)c2ccccc2)c1)NO [Example 6, Cyclopentyl (2S)-({3-[(1E)-3-(hydroxyamino)-3-oxoprop-1-en-1-yl]benzoyl}amino)(phenyl)acetate]
pIC50 ([1]; Homo sapiens, U-937): 5.48 to 6.48 | pIC50 [2]: 5.48 to 6.48 | pIC50 [3]: < 5.48 | pIC50 [4]: 6.00 to 7.00

CC(C)C[C@H](NCc1ccc(CCC(=O)NO)cc1)C(=O)OCCN1CCOCC1 [Example 35, 2-Morpholin-4-ylethyl N-{4-[3-(hydroxyamino)-3-oxopropyl]benzyl}-L-leucinate]
pIC50 ([1]; Homo sapiens, U-937): > 6.48 | pIC50 [2]: 5.48 to 6.48 | pIC50 [3]: < 5.48 | pIC50 [4]: < 6.00

O=C(/C=C/c1ccc(CN[C@H](C(=O)OC2CCCC2)c2ccccc2)cc1)NO [Example 17, Cyclopentyl (2S)-({4-[(1E)-3-(hydroxyamino)-3-oxoprop-1-en-1-yl]benzyl}amino)(phenyl)acetate]
pIC50 ([1]; Homo sapiens, U-937): > 6.48 | pIC50 [2]: 5.48 to 6.48 | pIC50 [3]: < 5.48 | pIC50 [4]: 6.00 to 7.00

O=C(/C=C/c1cccc(CN[C@H](C(=O)OC2CCCC2)c2ccccc2)c1)NO [Example 13, Cyclopentyl (2S)-({3-[(1E)-3-(hydroxyamino)-3-oxoprop-1-en-1-yl]benzyl}amino)(phenyl)acetate]
pIC50 ([1]; Homo sapiens, U-937): < 5.48 | pIC50 [2]: 5.48 to 6.48 | pIC50 [3]: < 5.48 | pIC50 [4]: < 6.00

O=C(/C=C/c1ccc(CN[C@H](C(=O)OC2CC3CCC2C3)C2CCCCC2)cn1)NO (stereo partly drawn) [Example 58, Bicyclo[2.2.1]hept-2-yl (2S)-cyclohexyl[({6-[(1E)-3-(hydroxyamino)-3-oxoprop-1-en-1-yl]pyridin-3-yl}methyl)amino]acetate]
pIC50 ([1]; Homo sapiens, U-937): > 6.48 | pIC50 [2]: > 6.48 | pIC50 [3]: 5.48 to 6.48 | pIC50 [4]: > 7.00

CC(C)(C)OC[C@H](NS(=O)(=O)c1cccc(/C=C/C(=O)NO)c1)C(=O)OC1CCCC1 [Example 4, Cyclopentyl O-tert-butyl-N-({3-[(1E)-3-(hydroxyamino)-3-oxoprop-1-en-1-yl]phenyl}sulfonyl)-L-serinate]
pIC50 ([1]; Homo sapiens, U-937): 5.48 to 6.48 | pIC50 [2]: 5.48 to 6.48 | pIC50 [3]: 5.48 to 6.48 | pIC50 [4]: > 7.00

CN(C)CCOC(=O)[C@@H](NCc1ccc(/C=C/C(=O)NO)nc1)C1CCCCC1 [Example 57, 2-(Dimethylamino)ethyl (2S)-cyclohexyl[({6-[(1E)-3-(hydroxyamino)-3-oxoprop-1-en-1-yl]pyridin-3-yl}methyl)amino]acetate]
pIC50 ([1]; Homo sapiens, U-937): > 6.48 | pIC50 [2]: > 6.48 | pIC50 [3]: < 5.48 | pIC50 [4]: > 7.00

O=C(/C=C/c1ccc(CN[C@H](C(=O)OC2CCCC2)C2CCCCC2)cc1)NO [Example 14, Cyclopentyl (2S)-cyclohexyl({4-[(1E)-3-(hydroxyamino)-3-oxoprop-1-en-1-yl]benzyl}amino)acetate]
pIC50 ([1]; Homo sapiens, U-937): > 6.48 | IC50 ([1]; Homo sapiens, U-937, U937 monocytic cell line, read-out: Inhibition of U937 cell proliferation (IC50-nM)): 5 nM | fold more potent as anti-proliferative agent than belinostat ([1]; monocytic cell line U937, versus belinostat): 30 fold | pIC50 [2]: > 6.48 | IC50 ([2]; HUT78 non-monocytic cell line, read-out: Inhibition of HUT78 cell proliferation (IC50-nM)): 230 nM | pIC50 [3]: 5.48 to 6.48 | pIC50 [4]: > 7.00 | IC50 ([4]; read-out: Inhibition of HDAC (IC50-nM)): 59 nM

CC(C)C[C@@H](NCc1ccc(/C=C/C(=O)NO)cc1)C(=O)OC1CCCC1 [Example 18, Cyclopentyl N-{4-[(1E)-3-(hydroxyamino)-3-oxoprop-1-en-1-yl]benzyl}-D-leucinate]
pIC50 ([1]; Homo sapiens, U-937): 5.48 to 6.48 | pIC50 [2]: 5.48 to 6.48 | pIC50 [3]: < 5.48 | pIC50 [4]: 6.00 to 7.00

CC(C)(C)OC[C@H](NCc1ccc(CNCc2ccc(/C=C/C(=O)NO)cc2)cc1)C(=O)OC1CCCC1 [Example 75, Cyclopentyl O-tert-butyl-N-{4-[({4-[(1E)-3-(hydroxyamino)-3-oxoprop-1-en-1-yl]benzyl}amino)methyl]benzyl}-L-serinate]
pIC50 ([1]; Homo sapiens, U-937): > 6.48 | pIC50 [2]: > 6.48 | pIC50 [3]: 5.48 to 6.48 | pIC50 [4]: 6.00 to 7.00

CC(C)C[C@H](NCc1ccc(CCC(=O)NO)cc1)C(=O)OC1Cc2ccccc2C1 [Example 37, 2,3-Dihydro-1H-inden-2-yl N-{4-[3-(hydroxyamino)-3-oxopropyl]benzyl}-L-leucinate]
pIC50 ([1]; Homo sapiens, U-937): > 6.48 | pIC50 [2]: > 6.48 | pIC50 [3]: 5.48 to 6.48 | pIC50 [4]: 6.00 to 7.00

O=C(/C=C/c1cccc(CNCc2ccc(CN[C@H](C(=O)OC3CCCC3)C3CCCCC3)cc2)c1)NO [Example 73, Cyclopentyl (2S)-cyclohexyl({4-[({3-[(1E)-3-(hydroxyamino)-3-oxoprop-1-en-1-yl]benzyl}amino)methyl]benzyl}amino)acetate]
pIC50 ([1]; Homo sapiens, U-937): 5.48 to 6.48 | pIC50 [2]: 5.48 to 6.48 | pIC50 [3]: 5.48 to 6.48 | pIC50 [4]: 6.00 to 7.00

O=C(/C=C/c1cccc(CNCC2CCC(CN[C@H](C(=O)OC3CCCC3)C3CCCCC3)CC2)c1)NO (stereo partly drawn) [Example 79, Cyclopentyl (2S)-cyclohexyl[({4-[({3-[(1E)-3-(hydroxyamino)-3-oxoprop-1-en-1-yl]benzyl}amino)methyl]cyclohexyl}methyl)amino]acetate]
pIC50 ([1]; Homo sapiens, U-937): 5.48 to 6.48 | pIC50 [2]: 5.48 to 6.48 | pIC50 [3]: 5.48 to 6.48 | pIC50 [4]: < 6.00

CC(C)C[C@H](NC(=O)c1ccc(/C=C/C(=O)NO)cc1)C(=O)OC1CCCC1 [Example 8, Cyclopentyl N-{4-[(1E)-3-(hydroxyamino)-3-oxoprop-1-en-1-yl]benzoyl}-L-leucinate]
pIC50 ([1]; Homo sapiens, U-937): 5.48 to 6.48 | pIC50 [2]: 5.48 to 6.48 | pIC50 [3]: 5.48 to 6.48 | pIC50 [4]: 6.00 to 7.00

O=C(/C=C/c1ccc(CN[C@@H](C(=O)OC2CCCC2)C2CCCCC2)cc1)NO [Example 19, Cyclopentyl (2R)-cyclohexyl({4-[(1E)-3-(hydroxyamino)-3-oxoprop-1-en-1-yl]benzyl}amino)acetate]
pIC50 ([1]; Homo sapiens, U-937): 5.48 to 6.48 | pIC50 [2]: < 5.48 | pIC50 [3]: < 5.48 | pIC50 [4]: 6.00 to 7.00

CC(C)(C)OC[C@H](NCCCOc1ccc(/C=C/C(=O)NO)cc1)C(=O)OC1CCCC1 [Example 10, Cyclopentyl O-tert-butyl-N-(3-{4-[(1E)-3-(hydroxyamino)-3-oxoprop-1-en-1-yl]phenoxy}propyl)-L-serinate]
pIC50 ([1]; Homo sapiens, U-937): 5.48 to 6.48 | pIC50 [2]: 5.48 to 6.48 | pIC50 [3]: 5.48 to 6.48 | pIC50 [4]: 6.00 to 7.00

CC1CCCC1OC(=O)[C@@H](NCc1ccc(/C=C/C(=O)NO)cc1)C1CCCCC1 (stereo partly drawn) [Example 27, 2-Methylcyclopentyl (2S)-cyclohexyl({4-[(1E)-3-(hydroxyamino)-3-oxoprop-1-en-1-yl]benzyl}amino)acetate]
pIC50 ([1]; Homo sapiens, U-937): > 6.48 | pIC50 [2]: 5.48 to 6.48 | pIC50 [3]: 5.48 to 6.48 | pIC50 [4]: 6.00 to 7.00

CC(C)(C)OC[C@H](NC1CCN(Cc2ccc(/C=C/C(=O)NO)cc2)CC1)C(=O)OC1CCCC1 [Example 81, Cyclopentyl O-tert-butyl-N-(1-{4-[(1E)-3-(hydroxyamino)-3-oxoprop-1-en-1-yl]benzyl}piperidin-4-yl)-L-serinate]
pIC50 ([1]; Homo sapiens, U-937): > 6.48 | pIC50 [2]: > 6.48 | pIC50 [3]: 5.48 to 6.48 | pIC50 [4]: 6.00 to 7.00

O=C(/C=C/c1cccc(CN[C@H](C(=O)OC2CCCC2)C2CCCCC2)c1)NO [Example 12, Cyclopentyl (2S)-cyclohexyl({3-[(1E)-3-(hydroxyamino)-3-oxoprop-1-en-1-yl]benzyl}amino)acetate]
pIC50 ([1]; Homo sapiens, U-937): 5.48 to 6.48 | pIC50 [2]: 5.48 to 6.48 | pIC50 [3]: < 5.48 | pIC50 [4]: 6.00 to 7.00

O=C(/C=C/c1ccc(CN2CCC(CN[C@H](C(=O)OC3CCCC3)c3ccccc3)CC2)cc1)NO [Example 82, Cyclopentyl (2S)-{[(1-{4-[(1E)-3-(hydroxyamino)-3-oxoprop-1-en-1-yl]benzyl}piperidin-4-yl)methyl]amino}(phenyl)acetate]
pIC50 ([1]; Homo sapiens, U-937): 5.48 to 6.48 | pIC50 [2]: 5.48 to 6.48 | pIC50 [3]: 5.48 to 6.48 | pIC50 [4]: > 7.00

O=C(/C=C/c1ccc(OCCCN[C@H](C(=O)OC2CCCC2)C2CCCCC2)cc1)NO [Example 9, Cyclopentyl (2S)-cyclohexyl[(3-{4-[(1E)-3-(hydroxyamino)-3-oxoprop-1-en-1-yl]phenoxy}propyl)amino]acetate]
pIC50 ([1]; Homo sapiens, U-937): < 5.48 | pIC50 [2]: < 5.48 | pIC50 [3]: < 5.48 | pIC50 [4]: < 6.00

CC(C)C[C@H](NCc1ccc(CCC(=O)NO)cc1)C(=O)OC1CC2CCC1C2 (stereo partly drawn) [Example 36, Bicyclo[2.2.1]hept-2-yl N-{4-[3-(hydroxyamino)-3-oxopropyl]benzyl}-L-leucinate]
pIC50 ([1]; Homo sapiens, U-937): > 6.48 | pIC50 [2]: > 6.48 | pIC50 [3]: 5.48 to 6.48 | pIC50 [4]: 6.00 to 7.00
